Reference: patent US6156790A, “C-10 carbon-substituted artemisinin-like trioxane compounds having antimalarial, antiproliferative and antitumor activities” (priority 1997, dated 2000)

How the values were obtained:
OVCAR-3 = test: NCI 60 cell line screen (SRB), ovarian cancer; assay type: cell-based; details: Homo sapiens; for GI50: read-out: Log10 GI50 (converted)
MCF7/ADR-RES = test: cells; assay type: cell-based; details: Homo sapiens; for GI50: read-out: Log10 GI50 (converted)
MDA-MB-435 = test: cells; assay type: cell-based; details: Homo sapiens; for IC (TGI): read-out: Log10 TGI (converted)
COLO 205 = test: NCI 60 cell line screen (SRB), colon cancer; assay type: cell-based; details: Homo sapiens; for CC50: read-out: Log10 LC50 (converted); for IC (TGI): read-out: Log10 TGI (converted)
UACC-62 = test: cells; assay type: cell-based; details: Homo sapiens; for CC50: read-out: Log10 LC50 (converted)
MALME-3M = test: cells; assay type: cell-based; details: Homo sapiens; for IC (TGI): read-out: Log10 TGI (converted)
[1] = test system: chloroquine-sensitive P. falciparum (NF54); test: In vitro antimalarial activity ([3H]hypoxanthine incorporation); assay type: cell-based
Procedure: Activity was determined by measuring the incorporation of [^3 H]hypoxanthine, by the methods of Desjardins and Milhouse, with the following modofications, see […].; Haynes, […]. Antimicrob. Agents Chemother., 16:710 (1979); Milhous, W. K.; Weatherly, […].; Antimicrob. Agents Chemother., 27: 525 (1985). […] Parasitemia was maintained at 0.05-3% and doubling time at approximately 15 hours by twice weekly change of medium and replenishment with fresh erythrocytes. […] Sigma-Aldrich #27,043-1). DMSO solutions were diluted 500-fold in medium, serially diluted in 0.2% DMSO in medium (to maintain constant solvent concentration), then 100 μL aliquots were pipetted into microtiter plate wells (Costar 3595). […] Plates included at least 8 wells of no drug controls (4 with and 4 without DMSO) and 4 wells of uninfected erythrocytes. […] Cells were harvested (Brandel MB-48R) onto GF-C glass filters (Brandel). The filters were washed five times with 3 mL water per sample spot, dried under a heat lamp, and counted (Beckman Model LS-6500) in scintillation cocktail (ICN Cytoscint). Decays per minute (dpm) values were downloaded and analyzed (Power MFacintosh 7200/90; Microsoft Excel 5.0), to yield the mean and standard deviation at each drug concentration.

SK-OV-3 = test: NCI 60 cell line screen (SRB), ovarian cancer; assay type: cell-based; details: Homo sapiens
786-0 = test: cells; assay type: cell-based; details: Homo sapiens; for IC (TGI): read-out: Log10 TGI (converted)
CCRF-CEM = test: NCI 60 cell line screen (SRB), leukemia; assay type: cell-based; details: Homo sapiens; for IC (TGI): read-out: Log10 TGI (converted)
SF-539 = test: cells; assay type: cell-based; details: Homo sapiens; for GI50: read-out: Log10 GI50 (converted); for IC (TGI): read-out: Log10 TGI (converted)
OVCAR-5 = test: NCI 60 cell line screen (SRB), ovarian cancer; assay type: cell-based; details: Homo sapiens; for CC50: read-out: Log10 LC50 (converted); for IC (TGI): read-out: Log10 TGI (converted)
SF-268 = test: NCI 60 cell line screen (SRB), CNS cancer; assay type: cell-based; details: Homo sapiens; for GI50: read-out: Log10 GI50 (converted)
LOX IMVI = test: cells; assay type: cell-based; details: Homo sapiens; for CC50: read-out: Log10 LC50 (converted); for IC (TGI): read-out: Log10 TGI (converted)
UACC-257 = test: cells; assay type: cell-based; details: Homo sapiens
SF-295 = test: cells; assay type: cell-based; details: Homo sapiens
CAKI-1 = test: NCI 60 cell line screen (SRB), renal cancer; details: Homo sapiens; for CC50: CAKI-1, read-out: Log10 LC50 (converted)
NCI-H522 = test: cells; assay type: cell-based; details: Homo sapiens; for IC (TGI): read-out: Log10 TGI (converted)
OVCAR-4 = test: NCI 60 cell line screen (SRB), ovarian cancer; assay type: cell-based; details: Homo sapiens, read-out: Log10 GI50 (converted)
HL-60(TB) = test: cells; details: Homo sapiens
SK-MEL-28 = test: cells; assay type: cell-based; details: Homo sapiens
[2] = test system: P. vivax and P. falciparum; details: cited from earlier work
P. falciparum [3] = details: Camp (chloroquine-susceptible) and Smith (chloroquine-resistant) strains; cited from earlier work
P. falciparum [4] = details: two Hanian strains; cited from earlier work
K-562 = test: cells; assay type: cell-based; details: Homo sapiens, K562, K-562; for GI50: read-out: Log10 GI50 (converted)
P388 leukemia = details: NCI Report on NSC 369397; cited from earlier work
NCI-H322M = test: cells; assay type: cell-based; details: Homo sapiens, read-out: Log10 TGI
HCC-2998 = test: NCI 60 cell line screen (SRB), colon cancer; assay type: cell-based; details: Homo sapiens
SK-MEL-5 = test: NCI 60 cell line screen (SRB), melanoma; assay type: cell-based; details: Homo sapiens
[5] = read-out: Log10 TGI (converted)
[6] = read-out: Log10 LC50 (converted)
[7] = read-out: Log10 GI50 (converted)

C[C@H]1[C@@H](CC(=O)c2ccc(C(=O)C[C@H]3O[C@@H]4O[C@@]5(C)CC[C@H]6[C@H](C)CC[C@@H]([C@H]3C)[C@@]46OO5)cc2)O[C@@H]2O[C@@]3(C)CC[C@H]4[C@H](C)CC[C@@H]1[C@@]24OO3 [Dimer 21]
GI50 (OVCAR-3): 0.692 µM
IC (TGI) (OVCAR-3; [5]): 28.2 µM
GI50 (MCF7/ADR-RES): 0.0105 µM
CC50 (MCF7/ADR-RES; [6]): 79.4 µM
IC (TGI) (MCF7/ADR-RES; [5]): 14.1 µM
IC (TGI) (MDA-MB-435): 25.1 µM
CC50 (COLO 205): 0.0759 µM
IC (TGI) (COLO 205): 0.0407 µM
GI50 (UACC-62; [7]): 0.0724 µM
CC50 (UACC-62): 95.5 µM
IC (TGI) (UACC-62; [5]): 27.5 µM
GI50 (MALME-3M; [7]): 0.0468 µM
IC (TGI) (MALME-3M): 28.2 µM
IC50 compared with artemisinin ([1]; in words): lower than that of artemisinin
GI50 (SK-OV-3; [7]): 263 µM
CC50 (SK-OV-3; [6]): 52.5 µM
IC (TGI) (786-0): 14.8 µM
IC (TGI) (CCRF-CEM): 45700 µM
GI50 (SF-539): 0.0166 µM
CC50 (SF-539; [6]): 38 µM
IC (TGI) (SF-539): 14.5 µM
CC50 (OVCAR-5): 60.3 µM
IC (TGI) (OVCAR-5): 14.5 µM
GI50 (SF-268): 0.0631 µM
IC (TGI) (SF-268; [5]): 79.4 µM
CC50 (LOX IMVI): 49 µM
IC (TGI) (LOX IMVI): 12 µM
IC (TGI) (UACC-257; [5]): 17.8 µM
GI50 (SF-295; [7]): 4.79 µM
CC50 (SF-295; [6]): 77.6 µM
IC (TGI) (SF-295; [5]): 25.1 µM
CC50 (CAKI-1): 27.5 µM
IC (TGI) (CAKI-1; CAKI-1, read-out: Log10 TGI): 0.0891 µM
IC (TGI) (NCI-H522): 28.2 µM
GI50 (OVCAR-4): 1.58 µM

C[C@@H]1CC[C@H]2[C@@H](C)C(=O)O[C@@H]3O[C@@]4(C)CC[C@@H]1[C@]32OO4 [Artemisinin]
GI50 (HL-60(TB); HL-60, read-out: Log10 GI50 (converted)): 55 µM
CC50 (HL-60(TB); HL-60, read-out: Log10 LC50 (converted)): > 100 µM
IC (TGI) (HL-60(TB); HL-60, read-out: Log10 TGI): 100 µM
CC50 (SK-MEL-28; [6]): > 100 µM
IC (TGI) (SK-MEL-28; read-out: Log10 TGI): > 100 µM
CC50 (COLO 205): > 100 µM
IC (TGI) (COLO 205): > 100 µM
CC50 (UACC-62): > 100 µM
clinical cure ([2]; 2099 cases, P. vivax and P. falciparum about 3:1): clinical cure of all patients
suppression of parasitemias ([2]; P. vivax and P. falciparum): effective at suppressing the parasitemias
potency in vitro compared with mefloquine (P. falciparum [3]): comparable
potency in vitro compared with chloroquine (P. falciparum [4]): comparable to that of chloroquine
CC50 (MALME-3M; [6]): > 100 µM
IC (TGI) (MALME-3M): 87.1 µM
IC50 ([1]; Plasmodium falciparum, NF54): 0.01 µM
GI50 (K-562): 46.8 µM
CC50 (K-562; [6]): > 100 µM
CC50 (OVCAR-5): > 100 µM
IC (TGI) (OVCAR-5): > 100 µM
CC50 (UACC-257; [6]): > 100 µM
activity against P388 leukemia (P388 leukemia): inactive

C[C@H]1[C@@H](F)O[C@@H]2O[C@@]3(C)CC[C@H]4[C@H](C)CC[C@@H]1[C@@]24OO3 [Compound VI, 10β-Fluorodeoxoartemisinin]
GI50 (OVCAR-3): 2.88 µM
GI50 (MCF7/ADR-RES): 3.55 µM
GI50 (MDA-MB-435; [7]): 0.692 µM
CC50 (MDA-MB-435; [6]): 34.7 µM
IC (TGI) (MDA-MB-435): 7.24 µM
GI50 (SK-MEL-28; [7]): 17.8 µM
IC (TGI) (NCI-H322M): > 100 µM
GI50 (786-0; [7]): 1.55 µM
IC (TGI) (786-0): 14.8 µM
GI50 (CCRF-CEM; CCRP-CEM, read-out: Log10 GI50 (converted)): 0.562 µM
IC (TGI) (CCRF-CEM): 53.7 µM
GI50 (SF-539): 14.1 µM
IC (TGI) (SF-539): 40.7 µM
GI50 (K-562): 0.316 µM
IC (TGI) (K-562; [5]): 12.6 µM
GI50 (SF-268): 13.8 µM
GI50 (LOX IMVI; [7]): 0.355 µM
CC50 (LOX IMVI): 31.6 µM
IC (TGI) (LOX IMVI): 275 µM
GI50 (CAKI-1; CAKI-1, read-out: Log10 GI50 (converted)): 724 µM
CC50 (CAKI-1): 47.9 µM
GI50 (HCC-2998; [7]): 14.5 µM
IC (TGI) (HCC-2998; [5]): 12.9 µM
GI50 (NCI-H522; [7]): 0.851 µM
CC50 (NCI-H522; [6]): 64.6 µM
IC (TGI) (NCI-H522): 16.6 µM
CC50 (SK-MEL-5; [6]): 61.7 µM
IC (TGI) (SK-MEL-5; [5]): 13.5 µM
